Read-outs that look alike come from different tables or passages of the source.
What was measured:
[1] = system: 340 wild-type protein kinases; assay: PanQinase wild-type kinase panel, selectivity score; format: biochemical; conditions: 1 μM; share of kinases with residual activity <50%; 340 wild-type protein kinase assays
Protocol: Screening procedures were performed in accordance with the company's on-line protocol [accessed on-line Mar.
The selectivity score for a particular compound at a particular concentration was calculated by using the following formula: Selectivity Score=(count of data points <50%)/(total number of data points).

U-87 MG = assay: Glioblastoma multiforme cell proliferation assay (CellTiter Glo), U-87 MG; format: cell-based; conditions: Homo sapiens; for Emax: read-out: GBM-U87MG Cell Proliferation Emax %
Protocol: (§1) Inhibition of glioblastoma multiforme cell proliferation by compounds of the present invention was evaluated in U-87 MG (ATCC; Cat. No. HTB-14; Lot. No. 5018014) and T98G (ATCC; Cat. No. CRL-1690; Lot. No. 58267513) cell lines. These are adherent cell lines isolated from glioblastoma multiforme/malignant glioma, which express both CXCR4 and BTK (see Zhou et al. 2002 and Yue et al. 2017).
(§2) Cell viability was analyzed with the CellTiter Glo Cell assay kit ([…], Cat. No. G7573, Lot. No. 0000474103), according to the manufacturer's instruction.
(§3) U-87 MG and T98G cells were seeded onto 384-well opaque-walled clear bottom plates (Corning, Cat. No. 3765, Lot. No. 34319047) in EMEM (Invitrogen, Cat. No. 11095-080; Lot. No. 2276656) supplemented with 10% FBS (Invitrogen, Cat. No. 10099-141C, Lot. No. 2145169CP), at a seeding density of 1000 or 1200 cells per well, respectively, and then incubated in 5% CO2 at 37° C. overnight.
(§4) Compounds were prepared as stock solutions of 30 mM in DMSO (Sigma, Cat. No. 276855-1L. Lot. No. SHBL5610). Compounds were added to the cells, with 10 dose points in duplicates, in 3-fold dilution from a top concentration of 30 μM (final DMSO concentration […]), and incubated in 5% CO2 at 37° C. for 96 hr.
(§5) The 384-well plates were equilibrated at room temperature for approximately 30 min. 25 μl of CellTiter-Glo® Reagent was added to each well and mixed for 10 min on an orbital shaker to induce cell lysis. The 384-well plates were incubated at room temperature for 10 min to stabilize luminescent signal. Luminescence was detected on a PerkinElmer EnVision Multimode Plate Reader (measurement time 0.1s) as relative luminescence units (RLU).

T98G = assay: Glioblastoma multiforme cell proliferation assay (CellTiter Glo), T98G; format: cell-based; conditions: Homo sapiens; for Emax: read-out: GBM-T-98G Cell Proliferation Emax %
Protocol: as §1, §2, §3, §4, §5

GBM-U251MG = assay: GBM cell proliferation, U251MG (cell-based cancer efficacy assays); conditions: Homo sapiens, U-251; Table 6B
MWCL-1 = assay: Apoptosis assay (annexin V flow cytometry) in Waldenstrom's Macroglobulinemia cells; format: cell-based, human; conditions: Homo sapiens; numeric; read-out: Apoptosis IC50 (μM) in single-mutant WM Cell Lines (MWCL-1)
Protocol: Waldenström's Macroglobulinemia cells (MWCL-1) and the bone marrow stromal cells (BMSCs; HS-27A) were used in this study. The MWCL-1 is a lymphoplasmacytic lymphoma established from the bone marrow aspirate of a patient diagnosed with Waldenström's Macroglobulinemia. It was provided by Dr Stephen M. Ansell (MAYO file number 2021-121; 200 First Street SW, Rochester, Minnesota). This cell line was cultured in RPMI-1640 (Fisher Scientific) containing 10% fetal bovine serum (FBS) (Sigma Aldrich, St Louis, MO), 100U/ml of Penicillin-Streptomycin (Gibco™, ThermoFisher Scientific). The HS-27A bone marrow stromal cells were obtained from ATCC. They were maintained in RPMI 1640 (Fisher Scientific) supplemented with 100U/ml of Penicillin-Streptomycin (Gibco™, ThermoFisher Scientific) and 10% FBS (TakaraBio). Cells were cultured in a 37° C. tissue culture CO2 incubator.
For studies with compounds using a co-culture system of MWCL-1 and BMSCs, BMSCs were cultured in a 96-, 48- or 24-well plates and cultured until the 90% confluence was reached. […] After 1 hour, the MWCL-Icells were added to the BMSC to create a co-culture system. The cells were co-incubated for 72 hours. After incubation time, cell viability, apoptosis, and IgM release were measured.
For studying the effect of compounds on inducing apoptosis of Waldenström Macroglobulinemia cells (MWCL-1). Cells were washed with PBS, resuspended in Annexin V binding buffer (Biolegend), and stained with Alexa Fluor 647 annexin V (Biolegend), Propidium Iodide (BD Pharmigen), and CD45 antibody (Biolegend) for 15 minutes at RT and analyzed by flow cytometry. Data were collected on an CytoFLEX S Flow Cytometer (Beckman Coulter) and analysed with FCS Express Software (De Novo Software). Annexin V positive cells were considered apoptotic.

CDK13/CycK = target: T1, CDK13/CycK (Homo sapiens, UniProt Q14004); assay: PanQinase kinase panel: CDK13/CycK; format: biochemical; conditions: read-out: INHIBITORY EFFECT @ 1 uM: CDK13/CycK
T1 construct: purchased Reaction Biology Europe GmbH
T1 sequence (Q14004 whole entry): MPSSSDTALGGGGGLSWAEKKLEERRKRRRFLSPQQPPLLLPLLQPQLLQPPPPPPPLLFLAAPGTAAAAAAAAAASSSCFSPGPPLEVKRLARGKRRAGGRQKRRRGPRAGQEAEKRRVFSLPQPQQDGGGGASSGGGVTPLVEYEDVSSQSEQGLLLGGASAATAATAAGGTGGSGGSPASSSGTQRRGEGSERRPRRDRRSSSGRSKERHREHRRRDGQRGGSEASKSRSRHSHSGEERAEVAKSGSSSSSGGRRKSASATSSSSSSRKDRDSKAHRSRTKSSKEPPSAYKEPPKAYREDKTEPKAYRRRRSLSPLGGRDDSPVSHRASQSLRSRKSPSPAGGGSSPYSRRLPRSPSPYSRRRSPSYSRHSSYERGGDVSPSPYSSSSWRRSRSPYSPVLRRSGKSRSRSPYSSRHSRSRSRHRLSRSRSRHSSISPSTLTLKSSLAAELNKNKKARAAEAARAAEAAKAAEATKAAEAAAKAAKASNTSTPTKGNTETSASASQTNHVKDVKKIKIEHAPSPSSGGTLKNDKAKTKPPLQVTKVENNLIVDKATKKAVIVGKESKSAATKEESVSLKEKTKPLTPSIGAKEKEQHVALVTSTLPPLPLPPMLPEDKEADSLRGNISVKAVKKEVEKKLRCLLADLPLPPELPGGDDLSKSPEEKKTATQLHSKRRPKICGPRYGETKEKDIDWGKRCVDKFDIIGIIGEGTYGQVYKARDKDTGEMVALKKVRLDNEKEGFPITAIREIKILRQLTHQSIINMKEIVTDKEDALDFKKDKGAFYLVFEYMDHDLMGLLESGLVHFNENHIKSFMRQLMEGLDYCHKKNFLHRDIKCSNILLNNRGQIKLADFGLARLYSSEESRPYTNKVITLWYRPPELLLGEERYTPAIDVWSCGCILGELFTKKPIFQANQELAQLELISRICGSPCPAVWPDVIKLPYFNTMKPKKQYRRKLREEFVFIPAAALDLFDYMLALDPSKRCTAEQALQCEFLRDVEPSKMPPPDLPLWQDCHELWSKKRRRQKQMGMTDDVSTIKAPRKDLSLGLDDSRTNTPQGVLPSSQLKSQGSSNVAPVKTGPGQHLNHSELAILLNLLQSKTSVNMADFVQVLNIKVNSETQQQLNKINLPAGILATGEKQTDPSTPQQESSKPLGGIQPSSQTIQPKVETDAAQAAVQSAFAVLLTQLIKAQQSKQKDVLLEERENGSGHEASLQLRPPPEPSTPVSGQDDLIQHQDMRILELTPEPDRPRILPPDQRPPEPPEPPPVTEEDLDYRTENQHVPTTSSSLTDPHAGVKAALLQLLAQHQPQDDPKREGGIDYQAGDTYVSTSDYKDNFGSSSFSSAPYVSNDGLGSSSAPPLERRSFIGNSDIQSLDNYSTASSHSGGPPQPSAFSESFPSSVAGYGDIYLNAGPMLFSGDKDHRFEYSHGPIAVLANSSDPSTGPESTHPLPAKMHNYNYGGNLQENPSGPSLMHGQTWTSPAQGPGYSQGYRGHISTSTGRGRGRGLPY
T1 sequence (O75909 whole entry partner): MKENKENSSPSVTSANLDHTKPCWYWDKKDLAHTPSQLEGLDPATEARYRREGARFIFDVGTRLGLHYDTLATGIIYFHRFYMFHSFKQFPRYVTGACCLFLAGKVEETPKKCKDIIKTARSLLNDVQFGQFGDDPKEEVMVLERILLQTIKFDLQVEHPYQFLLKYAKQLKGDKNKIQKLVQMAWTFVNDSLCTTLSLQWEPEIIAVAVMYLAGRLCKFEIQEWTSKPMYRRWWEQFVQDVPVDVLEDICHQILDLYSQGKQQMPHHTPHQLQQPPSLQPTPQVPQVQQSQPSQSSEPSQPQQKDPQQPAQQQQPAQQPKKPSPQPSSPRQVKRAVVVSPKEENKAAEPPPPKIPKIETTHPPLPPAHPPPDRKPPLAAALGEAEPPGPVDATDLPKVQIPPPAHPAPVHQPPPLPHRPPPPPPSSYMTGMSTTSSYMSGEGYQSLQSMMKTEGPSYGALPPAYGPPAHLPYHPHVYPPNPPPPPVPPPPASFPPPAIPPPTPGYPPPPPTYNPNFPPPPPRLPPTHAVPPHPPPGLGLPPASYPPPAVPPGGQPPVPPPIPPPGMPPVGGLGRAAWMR
Protocol: Screening procedures were performed in accordance with the company's on-line protocol [accessed on-line Mar. 25, 2022 at reaction biology.com/assay-protocol-panqinase]. Inhibitory activity of 50% or greater at concentrations of 1 μM are highlighted for all five compounds tested.
For each kinase, the median value of the cpm of three wells was defined as “low control” (n=3). This value reflects unspecific binding of radioactivity to the plate in the absence of a protein kinase but in the presence of the substrate. Additionally, for each kinase the median value of the cpm of three other wells was taken as the “high control,” i.e. full activity in the absence of any inhibitor (n=3). The difference between high and low control of each enzyme was taken as 100% activity.
As part of the data evaluation the low control of each kinase was subtracted from the high control value as well as from their corresponding “compound values”. The residual activity (in %) for each compound well was calculated by using the following formula: Res. Activity (%)=100×[(signal of compound−low control)/(high control−low control)].

WM patients = conditions: cited from earlier work
Ramos cell line = conditions: read-out: IC50, inhibition of cell proliferation, Chu et al. 2018; cited from earlier work

Selectivity Score [1] | IC50 (U-87 MG; Table 6B, read-out: GBM-U87MG Cell Proliferation IC50) [µM] | IC50 (T98G; Table 6B, read-out: GBM-T-98G Cell Proliferation IC50) [µM] | SMILES | Emax (U-87 MG; Table 6B) [%] | Emax (T98G; Table 6B) [%] | Emax (GBM-U251MG) [%] | IC50 (GBM-U251MG) [µM] | IC50 (U-87 MG; 96 h, read-out: U-87 MG IC50 (uM)) [µM] | Emax (U-87 MG) [%] | IC50 (U-87 MG; read-out: GBM-U87MG Cell Proliferation IC50 uM) [µM] | IC50 (T98G; 96 h, read-out: T98G IC50 (uM)) [µM] | Emax (T98G) [%] | IC50 (T98G; read-out: GBM-T-98G Cell Proliferation IC50 uM) [µM] | IC50 (MWCL-1) [µM] | inhibition at 1 µM (CDK13/CycK) [%] | VGPR (WM patients; WM patients with MYD88 L265P CXCR4 WT) [%] | VGPR (WM patients; WM patients with double mutations MYD88 L265P CXCR4 WHIM) [%] | IC50 (Ramos cell line) [µM]
0.009 |  |  | Cc1cc(-c2ccnc(Nc3cnn(C)c3)n2)ccc1CNC(=O)N1CC(OC(C)C)C1 [BIIB-068, reference compound] |  |  |  |  |  |  |  |  |  |  |  |  |  |  | 
 | 6.47 | > 30 | Cc1cccnc1[C@@H]1CCC[C@H](c2cn3c(N4CCN(C)CC4)cccc3n2)N1C [Compound I-19] | 19 | 16 | 6 | 1.67 |  |  |  |  |  |  |  |  |  |  | 
 |  |  | C=CC(=O)N1CCC[C@@H](n2nc(-c3ccc(Oc4ccccc4)cc3)c3c(N)ncnc32)C1 [Ibrutinib, ibrutinib, reference compound] |  |  | 57 | 0.31 | > 30 | 52 | 28.5 | > 30 | 73 | 24.4 | 4.2 | < 50 | 44.4 | 9.5 | 0.87
